Measurements as given in patent US6716987B1, “Derivatives of benzofuran or benzodioxazole compounds” (Kyowa Hakko Kogyo Co., Ltd., priority 1995, dated 2004).

What was measured:
[1] = tested on: TNF α production; experiment: Suppression effect on TNF α production in the LPS induced mouse sepsis model; type: in vivo; conditions: serum TNF α
Description: Lipopolysaccharide (LPS, DIFCO Laboratories) was dissolved in physiological saline to make a final concentration of 0.2 mg/ml. The resulting solution was administered intravenously to the tail of Balb/c male mice (7-week-old) (Charls River Japan Co.) at 200 μl per 20 g body weight of 5 to 6 mice/group. One hour after administration, blood was drawn from a fundus oculi vein of each mouse to obtain serum. […] The concentration of TNF a in serum was measured by enzyme-linked immunosorbent assay (ELISA method) as follows: […] anti-mouse TNF a monoclonal antibody (Pharmingen Inc.) diluted with a phosphate buffer solution (PBS) was added to a 96-well microtiter plate (Nalge Nunc International immuno-plate <MaxiSorp=) at […]; allowed to stand at 4° C. for 12 hours for coating; mixed with […] of a phosphate buffer solution containing 1% bovine serum albumin (BSA) (1% BSA-PBS); allowed to stand at room temperature for 1 hour to block the non-specific binding; washed with phosphate buffer solution; mixed with […] of the subject serum diluted two-fold with 1% BSA-PBS; and allowed to stand at room temperature for 2 hours. Furthermore, recombinant mouse TNF α (Genzyme Corp.) diluted with 1% BSA-PBS was similarly treated and used as a standard substance. These plates were washed three times with PBS (0.05% Tween-PBS) containing 0.05% polyoxyethylenesorbitan monolaurate (Tween 20, Wako Pure Chemical Industries, Ltd.), mixed with […] of biotin-labelled anti-mouse TNF α monoclonal antibody (Method A: Pharmingen Inc.; Method B: Genzyme Corp) diluted with 1% BSA-PBS to make a concentration of 1 mg/ml, allowed to stand at room temperature for 1 hour, washed three times with 0.05% Tween-PBS, mixed with […] of horseradish peroxidase avidin D (Vector Laboratories Inc.) diluted four-thousand-fold with 1% BSA-PBS, and allowed to stand at room temperature for 30 min. Finally, these plates were washed three times with 0.05% Tween-PBS, and mixed with […] of 3,3′,5,5′-tetramethylbenzidine. After color development, the reaction was stopped by adding […] of 10% sulfuric acid solution, and then, the absorbance at 450 nm was measured. The concentration of TNF α in serum was calculated from a calibration curve.
The rate of suppression of each test compound on TNF α production was obtained from the following formula:
Suppression rate=(A−B)/A,
wherein A is the TNF α concentration of the control group and B is the TNF α concentration of the experimental group.
In the above formula, the TNF α concentration of the control group is defined as the value obtained in the absence of the test compound (0.5% methyl cellulose solution alone).
Employed as the reference compounds were 7-methoxy-4-[1-oxo-2-(4-pyridyl)ethyl]-spiro[2,3-dihydrobenzofuran-2,1′-cyclopentane] hydrochloride (disclosed in Example 100 of Japanese Patent Laid-Open No. 8-836624 and hereinafter referred to as Compound RA) having the formula (RA) and 2-benzoyl-4-(3,5-dichloro-4-pyridyl)aminocarbonyl)-7-methoxybenzofuran (disclosed in Example 35 of Japanese Patent Laid-Open No. 8-534708 and hereinafter referred to as Compound RB) having the formula (RB): [drawing 660]

[2] = tested on: Sunkus murinus; experiment: Effect on vomiting induction in male Sunkus murinus; type: in vivo; conditions: dose 10 mg/kg i.p., observed for 1 hour after administration
Description: Five to fifteen male Sunkus murinus per group weighing approximately 60 g were used for the test. According to the method of Matsumoto, et. al. [Japan J. Pharmacol., 48, 303 (1988)], Sunkus murinus were placed separately into metal wire cages (width 15 cm×length 21 cm×height 15 cm). Each sample of the test compound was suspened in a 0.5% Tween 80 physiological saline solution and administered intraperitoneally (i.p.) at a dose of 10 ml/kg. […] In the group that was administered the test-compound, the results are represented as the number of vomiting animals/the number of experimental animals. Compound RA was employed as a reference compound.

[3] = Method A, dose 10 mg/kg orally 90 min before LPS
[4] = Method B, dose 30 mg/kg orally 90 min before LPS

SMILES | Suppression rate (%) [1, 3] | Number of vomiting animals/Number of experimental animals [2] | melting point | Suppression rate (%) [1, 4]
COc1ccc(-c2ccc(C(=O)O)cc2)c2c1OC(C)(C)O2 [Compound 204, 7-(4-carboxyphenyl)-2,2-dimethyl-4-methoxy-1,3-benzodioxole] | 79% | 2/5 | 237 to 239 °C | –
COc1ccc(-c2cnccc2C)c2c1OC1(CCCC1)O2 [Compound 205, 4-methoxy-7-(4-methyl-3-pyridyl)-spiro[1,3-benzodioxole-2,1′-cyclopentane]] | 79% | 0/5 | – | –
COc1ccc(C(=O)Cc2c(Cl)cncc2Cl)c2cc(C(=O)N3CCN(C)CC3)oc12 [Compound 206] | – | 0/5 | – | 65%
COc1ccc(C(=O)Cc2c(Cl)cncc2Cl)c2cc(C(=O)N3CCN(CCO)CC3)oc12 [Compound 207, 4-[2-(3,5-Dichloro-4-pyridyl)-1-oxoethyl]-2-[4-(2-hydroxyethyl)-1-piperazinylcarbonyl]-7-methoxybenzofuran] | – | 0/5 | – | 65%
COc1ccc(C(=O)Nc2c(Cl)cncc2Cl)c2cc(C(=O)CCCN3CCOCC3)oc12 [Compound 213, N-(3,5-Dichloropyridin-4-yl)-2-(4-morpholino)butyryl-7methoxybenzofuran-4-carboxamide] | – | 0/5 | – | 65%
COc1ccc(C(=O)Nc2c(Cl)cncc2Cl)c2cc(C(=O)CCCN3CCN(C)CC3)oc12 [Compound 214, N-(3,5-dichloropyridin-4-yl)-2-[4-(4-methyl-1-piperazinyl)]-butyryl-7-methoxybenzofuran-4-carboxamide] | – | 3/5 | – | 65%
COc1ccc(C(=O)Cc2ccncc2)c2c1OC1(CCCC1)C2.Cl [RA, 7-methoxy-4-[1-oxo-2-(4-pyridyl)ethyl]-spiro[2,3-dihydrobenzofuran-2,1′-cyclopentane] hydrochloride, reference compound] | 81% | 5/5 | – | 81%
COc1ccc(C(=O)Nc2c(Cl)cncc2Cl)c2cc(C(=O)c3ccccc3)oc12 [RB, reference compound] | 48% | 0/5 | – | 30%
